Experiments:
Assay type in all cases: cell-based
[1] = target: T1, human TLR7 (Homo sapiens, UniProt Q9NYK1); assay: TLR7 inhibition reporter assay (HEK-Blue SEAP); details: HEK-Blue cells overexpressing human TLR7, stimulated with gardiquimod 7.5 µM, 22 h incubation
T1 construct: host or cells: HEK-Blue cells
T1 sequence (Q9NYK1 27-1049): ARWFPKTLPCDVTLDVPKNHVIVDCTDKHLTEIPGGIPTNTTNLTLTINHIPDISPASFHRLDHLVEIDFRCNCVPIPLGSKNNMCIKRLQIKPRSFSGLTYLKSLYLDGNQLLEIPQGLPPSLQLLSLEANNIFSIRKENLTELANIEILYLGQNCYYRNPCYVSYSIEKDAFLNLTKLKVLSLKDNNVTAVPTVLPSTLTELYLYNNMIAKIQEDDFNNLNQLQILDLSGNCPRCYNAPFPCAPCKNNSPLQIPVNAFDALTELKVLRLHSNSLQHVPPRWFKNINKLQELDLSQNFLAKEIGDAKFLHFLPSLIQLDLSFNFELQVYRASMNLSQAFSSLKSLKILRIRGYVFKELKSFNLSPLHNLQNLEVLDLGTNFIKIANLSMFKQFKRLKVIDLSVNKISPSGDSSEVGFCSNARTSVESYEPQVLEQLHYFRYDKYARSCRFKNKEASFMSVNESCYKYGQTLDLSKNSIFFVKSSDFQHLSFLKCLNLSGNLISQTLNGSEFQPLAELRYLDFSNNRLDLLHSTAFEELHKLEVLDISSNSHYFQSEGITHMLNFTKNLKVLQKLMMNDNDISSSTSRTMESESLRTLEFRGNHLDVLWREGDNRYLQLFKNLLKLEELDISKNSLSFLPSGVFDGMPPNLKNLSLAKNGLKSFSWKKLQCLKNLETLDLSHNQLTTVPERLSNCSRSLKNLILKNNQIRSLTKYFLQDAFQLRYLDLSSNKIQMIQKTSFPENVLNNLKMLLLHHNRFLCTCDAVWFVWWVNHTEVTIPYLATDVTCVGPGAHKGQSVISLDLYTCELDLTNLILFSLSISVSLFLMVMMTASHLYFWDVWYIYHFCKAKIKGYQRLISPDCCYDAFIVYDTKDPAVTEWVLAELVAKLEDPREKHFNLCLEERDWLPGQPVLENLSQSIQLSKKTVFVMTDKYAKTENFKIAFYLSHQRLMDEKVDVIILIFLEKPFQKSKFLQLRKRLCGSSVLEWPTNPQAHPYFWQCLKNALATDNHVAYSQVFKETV
Procedure: (§1) HEK-Blue™-cells (Invivogen) overexpressing human TLR7, TLR8 or TLR9 receptors were used for screening inhibitors of these receptors using an inducible SEAP (secreted embryonic alkaline phosphatase) reporter gene under the control of the IFN-β minimal promoter fused to five NF-κB and AP-1-binding sites. Briefly, cells are seeded into Greiner 384 well plates (15000 cells per well for TLR7, 20,000 for TLR8 and 25,000 for TLR9) and then treated with test compounds in DMSO to yield a final dose response concentration range of 0.05 nM - 50 µM. After a 30 minute compound pre-treatment at room temperature, the cells are then stimulated with a TLR7 ligand (gardiquimod at a final concentration of 7.5 µM), TLR8 ligand (R848 at a final concentration of 15.9 µM) or TLR9 ligand (ODN2006 at a final concentration of 5 nM) to activate NF-κB and AP-1 which induce the production of SEAP. After a 22 h incubation at 37°C, 5% CO2, SEAP levels are determined with the addition of HEK-Blue™ Detection reagent (Invivogen), a cell culture medium that allows for detection of SEAP, according to manufacturer's specifications. The percent inhibition is determined as the % reduction in the HEK-Blue signal present in wells treated with agonist plus DMSO alone compared to wells treated with a known inhibitor.

[2] = target: T2, human TLR8 (Homo sapiens, UniProt Q9NR97); assay: TLR8 inhibition reporter assay (HEK-Blue SEAP); details: HEK-Blue cells overexpressing human TLR8, stimulated with R848 15.9 µM, 22 h incubation
T2 construct: host or cells: HEK-Blue cells
T2 sequence (Q9NR97 27-1041): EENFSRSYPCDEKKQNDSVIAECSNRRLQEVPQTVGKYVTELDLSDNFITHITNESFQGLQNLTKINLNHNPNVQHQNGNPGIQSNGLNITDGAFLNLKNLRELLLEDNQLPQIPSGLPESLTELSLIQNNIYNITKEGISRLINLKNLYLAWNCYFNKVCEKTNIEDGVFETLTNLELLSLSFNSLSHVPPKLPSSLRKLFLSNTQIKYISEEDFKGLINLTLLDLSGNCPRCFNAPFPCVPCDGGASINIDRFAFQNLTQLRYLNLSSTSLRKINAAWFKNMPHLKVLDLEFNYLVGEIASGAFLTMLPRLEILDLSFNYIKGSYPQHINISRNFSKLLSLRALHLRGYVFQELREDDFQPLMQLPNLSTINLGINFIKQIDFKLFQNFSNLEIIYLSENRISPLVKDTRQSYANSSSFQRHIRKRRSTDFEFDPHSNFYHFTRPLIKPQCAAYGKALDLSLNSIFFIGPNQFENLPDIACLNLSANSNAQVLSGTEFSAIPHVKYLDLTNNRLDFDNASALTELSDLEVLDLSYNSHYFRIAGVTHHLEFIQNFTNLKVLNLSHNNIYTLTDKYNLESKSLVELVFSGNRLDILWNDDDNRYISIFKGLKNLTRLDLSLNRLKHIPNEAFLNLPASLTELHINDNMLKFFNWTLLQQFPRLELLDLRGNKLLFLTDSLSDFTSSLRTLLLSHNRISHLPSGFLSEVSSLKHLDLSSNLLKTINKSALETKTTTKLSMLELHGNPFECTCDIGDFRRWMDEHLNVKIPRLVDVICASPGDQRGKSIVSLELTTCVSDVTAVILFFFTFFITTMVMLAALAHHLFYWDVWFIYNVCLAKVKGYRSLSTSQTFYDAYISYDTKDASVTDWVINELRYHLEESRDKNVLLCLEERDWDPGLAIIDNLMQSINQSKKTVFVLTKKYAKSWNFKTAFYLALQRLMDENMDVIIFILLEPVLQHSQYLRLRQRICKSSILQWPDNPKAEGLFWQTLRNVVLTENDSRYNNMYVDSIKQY
Procedure: as §1

[3] = target: T3, human TLR9 (Homo sapiens, UniProt Q9NR96); assay: TLR9 inhibition reporter assay (HEK-Blue SEAP); details: HEK-Blue cells overexpressing human TLR9, stimulated with ODN2006 5 nM, 22 h incubation
T3 construct: host or cells: HEK-Blue cells
T3 sequence (Q9NR96 26-1032): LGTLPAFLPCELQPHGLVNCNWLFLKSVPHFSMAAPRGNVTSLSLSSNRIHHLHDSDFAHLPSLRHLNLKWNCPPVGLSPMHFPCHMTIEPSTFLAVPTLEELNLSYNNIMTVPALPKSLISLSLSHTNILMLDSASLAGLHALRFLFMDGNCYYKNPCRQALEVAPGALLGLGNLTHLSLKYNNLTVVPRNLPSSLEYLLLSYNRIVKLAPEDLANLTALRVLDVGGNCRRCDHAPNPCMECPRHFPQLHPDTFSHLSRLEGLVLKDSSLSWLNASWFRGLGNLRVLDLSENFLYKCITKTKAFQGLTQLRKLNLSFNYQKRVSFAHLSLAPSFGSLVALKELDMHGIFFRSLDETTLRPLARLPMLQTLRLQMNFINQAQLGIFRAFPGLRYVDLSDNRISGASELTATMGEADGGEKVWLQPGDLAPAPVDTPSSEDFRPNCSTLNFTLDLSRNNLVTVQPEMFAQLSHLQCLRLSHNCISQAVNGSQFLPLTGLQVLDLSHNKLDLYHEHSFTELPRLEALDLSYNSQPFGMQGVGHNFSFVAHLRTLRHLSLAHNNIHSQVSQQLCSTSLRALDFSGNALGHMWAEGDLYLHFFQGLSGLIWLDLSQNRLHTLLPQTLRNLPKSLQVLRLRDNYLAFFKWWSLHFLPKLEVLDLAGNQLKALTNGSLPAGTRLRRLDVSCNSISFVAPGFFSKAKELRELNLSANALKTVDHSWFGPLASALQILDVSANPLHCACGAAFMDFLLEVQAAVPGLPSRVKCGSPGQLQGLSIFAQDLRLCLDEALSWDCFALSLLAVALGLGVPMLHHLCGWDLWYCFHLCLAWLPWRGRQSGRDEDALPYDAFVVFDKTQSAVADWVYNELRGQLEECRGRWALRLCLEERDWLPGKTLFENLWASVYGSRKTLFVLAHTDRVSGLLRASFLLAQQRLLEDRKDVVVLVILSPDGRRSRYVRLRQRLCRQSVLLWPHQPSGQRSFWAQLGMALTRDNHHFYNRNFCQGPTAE
Procedure: as §1

| IC50 [1] | IC50 [2] | IC50 [3] | Structure (SMILES) |
| --- | --- | --- | --- |
| 5.6 nM | 1.8 nM | 861 nM | COc1cc(-c2cc3[nH]c4ccc(C5CN(C6COC6)C5)cc4c3c(C)c2C)cn2ncnc12 [Example 36] |
| 2.5 nM | 0.4 nM | 514 nM | COc1cc(-c2cc3[nH]c4ccc(C5CN(CC(C)(C)O)C5)cc4c3c(C)c2C)cn2ncnc12 [Example 38] |
| 11 nM | 4 nM | 1240 nM | COc1cc(-c2cc3[nH]c4ccc(C5CN(CC#N)C5)cc4c3c(C)c2C)cn2ncnc12 [Example 39] |
